From ChEMBL document CHEMBL1201862, “PubChem BioAssay data set” (2004) come the findings set out here.

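Five compound concentrations were applied to cells in 96-well plates for 48 hours; endpoints were derived by simple linear interpolation of the resulting dose-response curve. Abbreviation: GI50, concentration required for 50% inhibition of growth.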 The source made the active and inactive calls. Cut-off read from the data, not from the text of the source: active = GI50 up to about 1.1 µM and inactive = higher.

Test systems include CAKI-1; PC-3; DU-145; OVCAR-4; NCI-H23; SK-MEL-2; SW-620; OVCAR-8; CCRF-CEM; SF-539; MOLT-4; UACC-257; NCI/ADR-RES; UO-31; SN12C; SNB-19; NCI-H226; EKVX; UACC-62; HOP-62.
Common to all, as to test: NCI tumour cell line growth inhibition, 48 h

As for `COC(=O)CC1C2CC3C(C2=O)C13` (stereo not given), the GI50 in the assay on CAKI-1, in the assay on PC-3, with DU-145, in the assay with OVCAR-4, in the assay with NCI-H23 and with SK-MEL-2 was > 100 µM (inactive) each time. Moreover, the GI50 with SW-620, with OVCAR-8, in the assay with CCRF-CEM, with SF-539, with MOLT-4 and in the assay with UACC-257 was > 100 µM (inactive) in each case. The GI50 in the assay on NCI/ADR-RES, with UO-31, in the assay on SN12C, with SNB-19, in the assay on NCI-H226 and with EKVX was > 100 µM (inactive) each time. The GI50 with UACC-62 and in the assay on HOP-62 was > 100 µM (inactive) throughout.

Consider `O=C(/C=C/c1ccccc1)CSc1nc[nH]n1`, for which the GI50 with CAKI-1, with PC-3, in the assay on DU-145, with OVCAR-4, in the assay with NCI-H23 and with SK-MEL-2 was > 100 µM (inactive) throughout. Further, the GI50 is 65.5 µM (inactive) in the assay on SW-620; > 100 µM (inactive) in the assay on OVCAR-8; 34.8 µM (inactive) in the assay on CCRF-CEM; > 100 µM (inactive) with SF-539; 63.2 µM (inactive) in the assay on MOLT-4; > 100 µM (inactive) in the assay with UACC-257. In addition, the GI50 in the assay on NCI/ADR-RES, with UO-31, in the assay with SN12C, in the assay on SNB-19, in the assay on NCI-H226 and with EKVX was > 100 µM (inactive) each time. Moreover, the GI50 with UACC-62 and in the assay with HOP-62 was > 100 µM (inactive) in each case.

As to `C[N+](C)(C)CC1CCCc2ccccc2C1=O` (stereo not given), the GI50 in the assay on CAKI-1 was 4.71 µM (inactive); with PC-3 it was 16.8 µM (inactive); in the assay with DU-145 it was > 42.1 µM (inactive); in the assay with OVCAR-4, 6.92 µM (inactive); in the assay on NCI-H23 it was 17.9 µM (inactive); in the assay with SK-MEL-2, 10.5 µM (inactive). The GI50 is 2.04 µM (inactive) in the assay with SW-620; 8.28 µM (inactive) in the assay on OVCAR-8; 2.32 µM (inactive) in the assay with CCRF-CEM; 17.4 µM (inactive) with SF-539; 2.48 µM (inactive) in the assay with MOLT-4; 13.7 µM (inactive) with UACC-257. The GI50 with NCI/ADR-RES is 7.06 µM (inactive); in the assay on UO-31, 16.9 µM (inactive); in the assay on SN12C, 6.68 µM (inactive); in the assay with SNB-19 it was 29 µM (inactive); in the assay on NCI-H226, 21.9 µM (inactive); in the assay on EKVX, 6.46 µM (inactive). Further, the GI50 was 12.2 µM (inactive) with UACC-62 and 18.8 µM (inactive) in the assay with HOP-62.

`O=C(CSc1nc2ccccc2c(=O)n1-c1ccccc1)N/N=C1\C(=O)Nc2ccc(Br)cc21`: the GI50 with CAKI-1 was 2.48 µM (inactive); with PC-3 it was 1.84 µM (inactive); in the assay on DU-145 it was 2.13 µM (inactive); with OVCAR-4, 2.58 µM (inactive); in the assay on NCI-H23, 3.42 µM (inactive); in the assay with SK-MEL-2, 9.53 µM (inactive). Further, the GI50 is 3.37 µM (inactive) with SW-620; 1.85 µM (inactive) with OVCAR-8; 5.62 µM (inactive) in the assay on CCRF-CEM; 2.1 µM (inactive) in the assay with SF-539; 3.33 µM (inactive) in the assay with MOLT-4; 5.94 µM (inactive) in the assay with UACC-257. For the same compound, the GI50 is 2.99 µM (inactive) in the assay on NCI/ADR-RES; 2.28 µM (inactive) in the assay with UO-31; 1.71 µM (inactive) in the assay with SN12C; 3.03 µM (inactive) with SNB-19; 12.1 µM (inactive) with NCI-H226; 2.74 µM (inactive) in the assay with EKVX. Moreover, the GI50 was 4.44 µM (inactive) in the assay with UACC-62 and 2.59 µM (inactive) in the assay on HOP-62.

Take `Cn1nc2ccc(Nc3cc(=O)[nH]c4ccc5nn(C)nc5c34)cc2n1`: the GI50 in the assay with CAKI-1, with PC-3, in the assay on DU-145, in the assay on OVCAR-4, in the assay on NCI-H23 and in the assay on SK-MEL-2 was > 100 µM (inactive) in each case. In addition, the GI50 with SW-620 is > 100 µM (inactive); in the assay with OVCAR-8 it was > 100 µM (inactive); in the assay on CCRF-CEM, > 100 µM (inactive); with SF-539, > 100 µM (inactive); with MOLT-4 it was 82.2 µM (inactive); in the assay with UACC-257, > 100 µM (inactive). The GI50 in the assay with NCI/ADR-RES, in the assay on UO-31, in the assay with SN12C, in the assay with SNB-19, with NCI-H226 and with EKVX was > 100 µM (inactive) in each case. Moreover, the GI50 with UACC-62 and with HOP-62 was > 100 µM (inactive) throughout.

Take `COc1ccc(C(=O)c2ccc(-n3c4ccccc4c4ccc5c(c43)C(=O)C=CC5=O)cc2)cc1`: the GI50 in the assay with CAKI-1 was 0.164 µM (active); with PC-3 it was 1.5 µM (inactive); with DU-145, 3.1 µM (inactive); in the assay with OVCAR-4, 2.55 µM (inactive); in the assay with NCI-H23 it was 1.7 µM (inactive); with SK-MEL-2 it was 3.88 µM (inactive). For the same compound, the GI50 in the assay with SW-620 was 1 µM (active); in the assay with OVCAR-8 it was 1.81 µM (inactive); with CCRF-CEM it was 0.367 µM (active); with SF-539, 2.61 µM (inactive); in the assay on MOLT-4, 0.348 µM (active); with UACC-257, 2.54 µM (inactive). The GI50 is 2.62 µM (inactive) with NCI/ADR-RES; 0.52 µM (active) with UO-31; 1.45 µM (inactive) in the assay on SN12C; 4.19 µM (inactive) with SNB-19; 17.3 µM (inactive) in the assay with NCI-H226; 1.86 µM (inactive) in the assay with EKVX. Also, the results for the GI50 in the assay with UACC-62 and in the assay on HOP-62 were 3.03 µM (inactive) and 12.5 µM (inactive), respectively.

Turning to `C/C=C/[C@@H]1O[C@H](CC#C[Si](C)(C)C)[C@@]2(C=O)C(C)=CC[C@H](C(C)C)[C@@H]12`, the GI50 in the assay on CAKI-1 was 1.94 µM (inactive); in the assay on PC-3, 15.4 µM (inactive); in the assay with DU-145, 21.3 µM (inactive); with OVCAR-4 it was 19.3 µM (inactive); in the assay on NCI-H23, 22.2 µM (inactive); in the assay on SK-MEL-2, 16.5 µM (inactive). The GI50 in the assay with SW-620 was 23.2 µM (inactive); in the assay with OVCAR-8, 23.4 µM (inactive); with CCRF-CEM, 2.41 µM (inactive); in the assay with SF-539, 21.6 µM (inactive); in the assay on MOLT-4 it was 1.93 µM (inactive); in the assay on UACC-257, 12.9 µM (inactive). In addition, the GI50 with NCI/ADR-RES is 23.3 µM (inactive); in the assay on UO-31, 1.61 µM (inactive); in the assay with SN12C it was 17.7 µM (inactive); in the assay with SNB-19, 23.8 µM (inactive); in the assay with NCI-H226, 20.3 µM (inactive); in the assay with EKVX, 18.8 µM (inactive). Besides, the GI50 with UACC-62 is 15.8 µM (inactive); with HOP-62 it was 25.4 µM (inactive).

For the compound `Cc1cccc(CP(Cc2cccc(C)c2)CC2(Cp3c4ccccc4c4ccccc43)COC2)c1`, the GI50 with CAKI-1 is 9.75 µM (inactive); in the assay on PC-3, 0.935 µM (active); in the assay with DU-145 it was 4.71 µM (inactive); in the assay with OVCAR-4 it was 13.3 µM (inactive); in the assay on NCI-H23, 11.5 µM (inactive); with SK-MEL-2, 7.23 µM (inactive). In addition, the GI50 is 10.3 µM (inactive) in the assay with SW-620; 1.78 µM (inactive) in the assay on OVCAR-8; 0.406 µM (active) with CCRF-CEM; 12.1 µM (inactive) in the assay on SF-539; 0.662 µM (active) in the assay on MOLT-4; 8.97 µM (inactive) in the assay on UACC-257. Moreover, the GI50 with NCI/ADR-RES was 53.7 µM (inactive); in the assay with UO-31, 16.3 µM (inactive); with SN12C, 4.41 µM (inactive); in the assay with SNB-19, 5.96 µM (inactive); in the assay with NCI-H226 it was 4.11 µM (inactive); with EKVX, 14.1 µM (inactive). Moreover, the GI50 was 11.7 µM (inactive) in the assay with UACC-62 and 66.7 µM (inactive) in the assay on HOP-62.

Take `Cc1ccc(NC(=O)c2cccc(OP(=O)(O)Nc3ccc(C)cc3)c2)cc1`: the GI50 with CAKI-1 was > 100 µM (inactive); with PC-3 it was > 100 µM (inactive); in the assay with DU-145 it was > 100 µM (inactive); in the assay on OVCAR-4, 72.8 µM (inactive); in the assay on NCI-H23, > 100 µM (inactive); in the assay on SK-MEL-2, > 100 µM (inactive). Also, the GI50 with SW-620 is > 100 µM (inactive); with OVCAR-8 it was > 100 µM (inactive); in the assay on CCRF-CEM, > 100 µM (inactive); in the assay with SF-539, > 100 µM (inactive); with MOLT-4, 64.6 µM (inactive); in the assay on UACC-257, > 100 µM (inactive). The GI50 is > 100 µM (inactive) in the assay on NCI/ADR-RES; 88.1 µM (inactive) in the assay on UO-31; > 100 µM (inactive) with SN12C; > 100 µM (inactive) in the assay with SNB-19; > 100 µM (inactive) in the assay with NCI-H226; > 100 µM (inactive) in the assay with EKVX. Besides, the GI50 in the assay on UACC-62 and with HOP-62 was > 100 µM (inactive) each time.

For the compound `Cc1cccc2c(NCCCN(C)C)c3c([N+](=O)[O-])ccc(C)c3nc12`, the GI50 was 0.2 µM (active) in the assay on CAKI-1; 0.0494 µM (active) with PC-3; 0.0887 µM (active) with DU-145; 0.0628 µM (active) with OVCAR-4; 0.034 µM (active) with NCI-H23; 0.132 µM (active) in the assay on SK-MEL-2. In addition, the GI50 in the assay on SW-620 is 0.0659 µM (active); with OVCAR-8 it was 0.206 µM (active); in the assay on CCRF-CEM it was 0.423 µM (active); in the assay with SF-539, 0.263 µM (active); in the assay on MOLT-4, 0.0178 µM (active); in the assay with UACC-257, 0.192 µM (active). Further, the GI50 is 0.337 µM (active) with NCI/ADR-RES; 0.216 µM (active) in the assay on UO-31; 0.221 µM (active) in the assay with SN12C; 0.192 µM (active) in the assay on SNB-19; 0.194 µM (active) in the assay with NCI-H226; 0.0855 µM (active) in the assay on EKVX. Moreover, the GI50 was 0.144 µM (active) in the assay with UACC-62 and 0.047 µM (active) with HOP-62.
